BindingDB's records for doi:10.1016/j.ejmech.2019.04.066 (Shanghai Ocean University, 2019)

Experiment: Inhibition of ICAM-1 in human A549 cells after 1 hr in presence of IL-1beta

IC50: 5.9 µM
SMILES: C[C@@H]1C(=O)O[C@H]2[C@H]1CC[C@@]1(C)C[C@@H](Br)C(=O)[C@@H](C)[C@H]21
